Assay results from ChEMBL document CHEMBL5532761, “Rosavin improves insulin resistance and alleviates hepatic and kidney damage via modulating the cGAS-STING pathway and autophagy signaling in HFD/STZ-induced T2DM animals” (2024).
Active and inactive are the calls of the source. No cut-off for these calls is given here.

Legend:
Rattus norvegicus [1] = assay: (§1) Antidiabetic activity in high fat diet-STZ induced diabetic Wistar rat model assessed as ALT level at 20 mg/kg, ip pretreated with high fat diet for 4 weeks followed by 8 hrs fasting after STZ administration and measured 4 weeks after compound treatment (reference value: 152.1 +/- 23.64 IU/L); assay type: functional
Rattus norvegicus [2] = assay: Antidiabetic activity in high fat diet-STZ induced diabetic Wistar rat model assessed as ALT level at 30 mg/kg, ip pretreated with high fat diet for 4 weeks followed by 8 hrs fasting after STZ administration and measured 4 weeks after compound treatment (reference value: 152.1 +/- 23.64 IU/L); assay type: functional
Rattus norvegicus [3] = assay: Antidiabetic activity in ip dosed high fat diet-STZ induced diabetic Wistar rat model assessed as reduction of miR-1976 expression in adipose tissue pretreated with high fat diet for 4 weeks followed by 8 hrs fasting after STZ administration and measured 4 weeks after compound treatment by RT-qPCR analysis; assay type: functional, organism-based; conditions: dose 10-30 mg/kg
Rattus norvegicus [4] = assay: (§2) Antidiabetic activity in high fat diet-STZ induced diabetic Wistar rat model assessed as increase in body weight at 10 to 30 mg/kg, ip pretreated with high fat diet for 4 weeks followed by 8 hrs fasting after STZ administration and measured 4 weeks after compound treatment; assay type: functional, organism-based; conditions: dose 10-30 mg/kg
Rattus norvegicus [5] = assay: (§3) Antidiabetic activity in high fat diet-STZ induced diabetic Wistar rat model assessed as reduction in inflammatory infiltrates in kidney at 20 mg/kg, ip pretreated with high fat diet for 4 weeks followed by 8 hrs fasting after STZ administration and measured 4 weeks after compound treatment by hematoxylin and eosin staining based microscopic analysis; assay type: functional, organism-based
Rattus norvegicus [6] = assay: Antidiabetic activity in high fat diet-STZ induced diabetic Wistar rat model assessed as creatinine level at 30 mg/kg, ip pretreated with high fat diet for 4 weeks followed by 8 hrs fasting after STZ administration and measured 4 weeks after compound treatment (reference value: 3.88 +/- 0.502 mg%); assay type: functional
Rattus norvegicus [7] = assay: as §2, with “AC074117.2 lncRNA expression in kidney” for “body weight”, “treatment by RT-qPCR analysis” for “treatment”; assay type: functional, organism-based; conditions: dose 10-30 mg/kg
Rattus norvegicus [8] = assay: as §1, with “LDL-cholesterol” for “ALT”, “10” for “20”, “6.54” for “152.1”, “0.918 mmol/L)” for “23.64 IU/L)”; assay type: functional
Rattus norvegicus [9] = assay: Antidiabetic activity in ip dosed high fat diet-STZ induced diabetic Wistar rat model assessed as reduction of STING mRNA expression in liver pretreated with high fat diet for 4 weeks followed by 8 hrs fasting after STZ administration and measured 4 weeks after compound treatment by RT-qPCR analysis; assay type: functional, organism-based; conditions: dose 10-30 mg/kg
Rattus norvegicus [10] = assay: Antidiabetic activity in ip dosed high fat diet-STZ induced diabetic Wistar rat model assessed as reduction of ZBP1 mRNA expression in liver pretreated with high fat diet for 4 weeks followed by 8 hrs fasting after STZ administration and measured 4 weeks after compound treatment by RT-qPCR analysis; assay type: functional, organism-based; conditions: dose 10-30 mg/kg
Rattus norvegicus [11] = assay: (§4) Antidiabetic activity in high fat diet-STZ induced diabetic Wistar rat model assessed as HOMA-IR level at 30 mg/kg, ip pretreated with high fat diet for 4 weeks followed by 8 hrs fasting after STZ administration and measured 4 weeks after compound treatment (reference value: 21.51 +/- 2.17); assay type: functional
Rattus norvegicus [12] = assay: (§5) Antidiabetic activity in high fat diet-STZ induced diabetic Wistar rat model assessed as reduction in interstitial inflammatory cell infiltration in kidney at 10 mg/kg, ip pretreated with high fat diet for 4 weeks followed by 8 hrs fasting after STZ administration and measured 4 weeks after compound treatment by hematoxylin and eosin staining based microscopic analysis; assay type: functional, organism-based
Rattus norvegicus [13] = assay: as §1, with “HDL-cholesterol” for “ALT”, “0.688” for “152.1”, “0.288 mmol/L)” for “23.64 IU/L)”; assay type: functional
Rattus norvegicus [14] = assay: as §5, with “appearance of apparent intact segments” for “reduction in interstitial inflammatory cell infiltration”; assay type: functional, organism-based
Rattus norvegicus [15] = assay: as §3, with “inflammatory cell” for “inflammatory”, “liver” for “kidney”, “30” for “20”; assay type: functional, organism-based
Rattus norvegicus [16] = assay: Antidiabetic activity in ip dosed high fat diet-STZ induced diabetic Wistar rat model assessed as reduction of DDX58 mRNA expression in liver pretreated with high fat diet for 4 weeks followed by 8 hrs fasting after STZ administration and measured 4 weeks after compound treatment by RT-qPCR analysis; assay type: functional, organism-based; conditions: dose 10-30 mg/kg
Rattus norvegicus [17] = assay: Antidiabetic activity in high fat diet-STZ induced diabetic Wistar rat model assessed as AST level at 10 mg/kg, ip pretreated with high fat diet for 4 weeks followed by 8 hrs fasting after STZ administration and measured 4 weeks after compound treatment (reference value: 136.3 +/- 22.8 IU/L); assay type: functional
Rattus norvegicus [18] = assay: as §4, with “insulin” for “HOMA-IR”, “level in serum” for “level”, “treatment by ELISA” for “treatment”, “16.53” for “21.51”, “1.14 microU/ml)” for “2.17)”; assay type: functional
Rattus norvegicus [19] = assay: Antidiabetic activity in high fat diet-STZ induced diabetic Wistar rat model assessed as mean area percentage of LC3B in liver at 10 mg/kg, ip pretreated with high fat diet for 4 weeks followed by 8 hrs fasting after STZ administration and measured after 4 weeks of compound treatment by immunohistochemistry based microscopic analysis (reference value: 0.742 +/- 0.143 %); assay type: functional
Rattus norvegicus [20] = assay: as §5, with “tubular degenerative changes” for “interstitial inflammatory cell infiltration”; assay type: functional, organism-based
Rattus norvegicus [21] = assay: as §5, with “protection against diffuse hepatocellular microvesicular steatosis” for “reduction in interstitial inflammatory cell infiltration in kidney”; assay type: functional, organism-based
Rattus norvegicus [22] = assay: as §1, with “blood urea nitrogen” for “ALT”, “466.4” for “152.1”, “51.16 mg%)” for “23.64 IU/L)”; assay type: functional

How did the Activity (Rattus norvegicus [1]) turn out when `O[C@@H]1[C@@H](O)[C@H](OC/C=C/c2ccccc2)O[C@H](CO[C@@H]2OC[C@H](O)[C@H](O)[C@H]2O)[C@H]1O` was run?
The Activity was 42.38 IU/L.

What about the Activity (Rattus norvegicus [2]) of the same molecule?
Its Activity is 18.13 IU/L.

What about the Activity (Rattus norvegicus [3]) of the same molecule?
Its Activity is “Dose-Dependent Effect”.

What about the Activity (Rattus norvegicus [4]) of the same molecule?
Its Activity is “Active”.

And the Activity (Rattus norvegicus [5])?
Its Activity is “Active”.

What about the Activity (Rattus norvegicus [6]) of the same molecule?
The Activity was 0.769 mg%.

What about the Activity (Rattus norvegicus [7]) of the same molecule?
The Activity was “Active”.

And the Activity (Rattus norvegicus [8])?
The Activity was 3.19 mmol/L.

What about the Activity (Rattus norvegicus [9]) of the same molecule?
The Activity was “Dose-Dependent Effect”.

What about the Activity (Rattus norvegicus [10]) of the same molecule?
Its Activity is “Dose-Dependent Effect”.

What about the Activity (Rattus norvegicus [11]) of the same molecule?
Its Activity is 1.73.

What about the Activity (Rattus norvegicus [12]) of the same molecule?
The Activity was “Active”.

What about the Activity (Rattus norvegicus [13]) of the same molecule?
Its Activity is 1.06 mmol/L.

And the Activity (Rattus norvegicus [14])?
The Activity was “inactive”.

What about the Activity (Rattus norvegicus [15]) of the same molecule?
Its Activity is “Active”.

And the Activity (Rattus norvegicus [16])?
Its Activity is “Dose-Dependent Effect”.

What about the Activity (Rattus norvegicus [17]) of the same molecule?
The Activity was 83.63 IU/L.

What about the Activity (Rattus norvegicus [18]) of the same molecule?
Its Activity is 5.64 uU/ml.

What about the Activity (Rattus norvegicus [19]) of the same molecule?
The Activity was 2.22%.

What about the Activity (Rattus norvegicus [20]) of the same molecule?
Its Activity is “inactive”.

And the Activity (Rattus norvegicus [21])?
Its Activity is “inactive”.

What about the Activity (Rattus norvegicus [22]) of the same molecule?
The Activity was 213.3 mg%.
